Series [1] in a line: chemical recovery by SPE of plasma after PDMS sampling; higher = better extraction. As to conditions: pooled human plasma, extraction method: HLB SPE of plasma after PES.
Series [2] in a line: chemical recovery into PDMS from spiked human plasma; higher = better extraction. As to conditions: pooled human plasma, extraction method: PES with PDMS.
Series [3] can be described thus: chemical recovery from spiked human plasma; higher = better extraction. Conditions: pooled human plasma.
The mark [4] stands for this setting: extraction method: SPE only (HLB 96-well).
Where [5] appears, read: extraction method: SPE only (HLB 96-well), PES comparison experiment.
Where [6] appears, read: extraction method: PES+SPE (3 d PDMS equilibration then HLB SPE).
The mark [7] stands for this setting: extraction method: solvent precipitation (ACN + hexane).

± gives the standard deviation.

Here are results for eleven molecules from the supplement of paper PMC10702517.
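Wherever chemical recovery by SPE of plasma after PDMS sampling is given: over 400 spiked chemicals quantified by LC-HRMS or GC-HRMS via internal standard calibration, recovery relative to spike mix added to unspiked plasma extract to correct matrix effects.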

For the molecule `CN1CCN(C)C1=O` [1,3-Dimethyl-2-imidazolidinone], the entries for the “chemical recovery by SPE of plasma” value in series [1] (equilibration time (d): 1), in series [1] (equilibration time (d): 3) and in series [1] (equilibration time (d): 6) were 4.06 ± 4.7%, 4.29 ± 3.7% and 8.78 ± 4.2%, respectively. Moreover, the “chemical recovery into PDMS” value in series [2] (equilibration time (d): 1) was determined as 3.18 ± 2.2%; in series [2] (equilibration time (d): 3) it was 2.57 ± 3%; in series [2] (equilibration time (d): 6), 3.27 ± 3.2%. In addition, the chemical recovery in series [3] (setting [4]) was 7.04 ± 5.9%; in series [3] (setting [5]), 13.6 ± 8.1%.

Consider `Nc1cccc2ccccc12` [1-Naphthylamine], for which the “chemical recovery by SPE of plasma” value in series [1] (equilibration time (d): 1) was found to be 11.2 ± 0.88%; in series [1] (equilibration time (d): 3) it was 12.3 ± 2.6%; in series [1] (equilibration time (d): 6), 6.22 ± 5.4%. Further, the “chemical recovery into PDMS” value in series [2] (equilibration time (d): 3) came to 0.33 ± 0.13%; in series [2] (equilibration time (d): 6) it was 0.338 ± 0.048%. In addition, the chemical recovery in series [3] (setting [6]) stood at 4.07 ± 2.1%; in series [3] (setting [4]), 16.7 ± 8.8%; in series [3] (setting [5]) it was 22 ± 3%.

Regarding `c1ccc(-c2cccc3ccccc23)cc1` [1-Phenylnaphthalene], in series [1] (equilibration time (d): 3), the “chemical recovery by SPE of plasma” value amounted to 2.49 ± 2.2%. The “chemical recovery into PDMS” value stood at 70.3 ± 20% in series [2] (equilibration time (d): 1), 70.6 ± 5.2% in series [2] (equilibration time (d): 3) and 78.1 ± 11% in series [2] (equilibration time (d): 6). Moreover, the chemical recovery in series [3] (setting [6]) is 45.1 ± 7.6%; in series [3] (setting [4]) it was 12.2 ± 3%; in series [3] (setting [5]) it was 17.3 ± 3%.

For `c1ccc2[nH]nnc2c1` [1H-Benzotriazole], the “chemical recovery by SPE of plasma” value in series [1] (equilibration time (d): 1) was found to be 47.4 ± 3.6%; in series [1] (equilibration time (d): 3), 46.6 ± 3.2%; in series [1] (equilibration time (d): 6) it was 39.9 ± 2.1%. The “chemical recovery into PDMS” value is 4.24 ± 0.36% in series [2] (equilibration time (d): 1), 6.44 ± 1% in series [2] (equilibration time (d): 3) and 7.25 ± 1.5% in series [2] (equilibration time (d): 6). For the same molecule, the chemical recovery was 51.7 ± 3.9% in series [3] (setting [6]), 48.2 ± 2.7% in series [3] (setting [4]), 53.9 ± 5.8% in series [3] (setting [5]) and 62.5 ± 4.5% in series [3] (setting [7]).

On to `c1ccc2sc(N3CCOCC3)nc2c1` [2(4-morpholinyl)benzothiazole], for which the results for the “chemical recovery by SPE of plasma” value in series [1] (equilibration time (d): 1), in series [1] (equilibration time (d): 3) and in series [1] (equilibration time (d): 6) were 1.2 ± 0.1%, 1.41 ± 0.23% and 0.805 ± 0.046%, respectively. In addition, the “chemical recovery into PDMS” value was found to be 27.1 ± 0.46% in series [2] (equilibration time (d): 1), 29.2 ± 2.2% in series [2] (equilibration time (d): 3) and 30.7 ± 0.94% in series [2] (equilibration time (d): 6). For the same molecule, the chemical recovery was found to be 41.7 ± 6.4% in series [3] (setting [6]), 39.6 ± 2.1% in series [3] (setting [4]), 40.1 ± 5.6% in series [3] (setting [5]) and 67.9 ± 3.3% in series [3] (setting [7]).

For `O=C(O)c1ccc(Cl)cc1Cl` [2,4-Dichlorobenzoic acid], the “chemical recovery by SPE of plasma” value in series [1] (equilibration time (d): 1) came out at 47.5 ± 9.1%; in series [1] (equilibration time (d): 3), 46.9 ± 8.3%; in series [1] (equilibration time (d): 6) it was 47 ± 2.5%. The results for the “chemical recovery into PDMS” value in series [2] (equilibration time (d): 1), in series [2] (equilibration time (d): 3) and in series [2] (equilibration time (d): 6) were 0.268 ± 0.04%, 0.296 ± 0.12% and 0.344 ± 0.065%, respectively. For the same molecule, the chemical recovery was found to be 47.3 ± 5.1% in series [3] (setting [4]), 57 ± 6.3% in series [3] (setting [5]) and 67 ± 4.5% in series [3] (setting [7]).

With `O=Cc1ccccc1Nc1ccccc1Cl` [2-(2-(Chlorophenyl)amino)benzaldehyde], the “chemical recovery by SPE of plasma” value was 0.712 ± 0.79% in series [1] (equilibration time (d): 1) and 0.276 ± 0.48% in series [1] (equilibration time (d): 3). The figures for the “chemical recovery into PDMS” value in series [2] (equilibration time (d): 1), in series [2] (equilibration time (d): 3) and in series [2] (equilibration time (d): 6) were 36.6 ± 1.5%, 40.9 ± 4% and 43.5 ± 3.3%, respectively. Further, the chemical recovery in series [3] (setting [5]) was found to be 23.9 ± 4.7%.

`Nc1ccc2c(n1)[nH]c1ccccc12` [2-Amino-9H-pyrido[2,3-b]indole (AalphaC)]: the “chemical recovery by SPE of plasma” value was 19.66 ± 0.18% in series [1] (equilibration time (d): 1), 14.4 ± 1.5% in series [1] (equilibration time (d): 3) and 9.97 ± 0.52% in series [1] (equilibration time (d): 6). Besides, the entries for the “chemical recovery into PDMS” value in series [2] (equilibration time (d): 1), in series [2] (equilibration time (d): 3) and in series [2] (equilibration time (d): 6) were 3 ± 0.11%, 3.49 ± 1.2% and 5.65 ± 2.5%, respectively. The chemical recovery in series [3] (setting [6]) was 17 ± 2.6%; in series [3] (setting [4]), 28.5 ± 2.1%; in series [3] (setting [5]), 45.3 ± 7.1%; in series [3] (setting [7]) it was 70.8 ± 5.4%.

As to `Clc1ccc2ccccc2c1` [2-Chloronaphthalene], the “chemical recovery by SPE of plasma” value in series [1] (equilibration time (d): 1) came to 3.42 ± 3%. Besides, the “chemical recovery into PDMS” value in series [2] (equilibration time (d): 1) worked out at 10.2 ± 1.7%. The chemical recovery in series [3] (setting [4]) came out at 0.106 ± 0.18%; in series [3] (setting [5]) it was 0.564 ± 0.39%.

Turning to `O=c1[nH]c2ccccc2s1` [2-Hydroxybenzothiazole], the “chemical recovery by SPE of plasma” value in series [1] (equilibration time (d): 1) came to 36.2 ± 6%; in series [1] (equilibration time (d): 3) it was 37.7 ± 2.4%; in series [1] (equilibration time (d): 6) it was 30.3 ± 2.5%. For the same molecule, the “chemical recovery into PDMS” value in series [2] (equilibration time (d): 1) stood at 9.18 ± 0.11%; in series [2] (equilibration time (d): 3), 11.1 ± 0.48%; in series [2] (equilibration time (d): 6) it was 8.95 ± 1.5%. Moreover, the chemical recovery in series [3] (setting [6]) was determined as 63.5 ± 7%; in series [3] (setting [4]), 49.6 ± 2.7%; in series [3] (setting [5]), 58.8 ± 4.3%; in series [3] (setting [7]), 71.6 ± 5.8%.

Regarding `NC(=O)N1c2ccccc2C=Cc2cc(O)ccc21` [2-Hydroxycarbamazepine], the “chemical recovery by SPE of plasma” value was found to be 57.7 ± 11% in series [1] (equilibration time (d): 1), 55.6 ± 6.7% in series [1] (equilibration time (d): 3) and 51.7 ± 11% in series [1] (equilibration time (d): 6). Also, the “chemical recovery into PDMS” value in series [2] (equilibration time (d): 1) was 0.215 ± 0.2%; in series [2] (equilibration time (d): 3) it was 0.668 ± 0.2%; in series [2] (equilibration time (d): 6) it was 0.788 ± 0.13%. The chemical recovery is 48.1 ± 3.7% in series [3] (setting [6]), 44.7 ± 3.9% in series [3] (setting [4]), 51.6 ± 4.5% in series [3] (setting [5]) and 68.2 ± 1.6% in series [3] (setting [7]).
